In ChEMBL document CHEMBL5036336, “Structure-Guided Optimization Provides a Series of TTK Protein Inhibitors with Potent Antitumor Activity” (J Med Chem, 2021):
Values after ≈ are worked out from the molar mass of the structure shown.

How the values were obtained:
[1] = target: T1, Dual specificity protein kinase TTK (Homo sapiens, UniProt P33981); test: Displacement of kinase tracer 236 from TTK (unknown origin) by LanthaScreen Eu kinase binding assay
T1 sequence (P33981 whole entry): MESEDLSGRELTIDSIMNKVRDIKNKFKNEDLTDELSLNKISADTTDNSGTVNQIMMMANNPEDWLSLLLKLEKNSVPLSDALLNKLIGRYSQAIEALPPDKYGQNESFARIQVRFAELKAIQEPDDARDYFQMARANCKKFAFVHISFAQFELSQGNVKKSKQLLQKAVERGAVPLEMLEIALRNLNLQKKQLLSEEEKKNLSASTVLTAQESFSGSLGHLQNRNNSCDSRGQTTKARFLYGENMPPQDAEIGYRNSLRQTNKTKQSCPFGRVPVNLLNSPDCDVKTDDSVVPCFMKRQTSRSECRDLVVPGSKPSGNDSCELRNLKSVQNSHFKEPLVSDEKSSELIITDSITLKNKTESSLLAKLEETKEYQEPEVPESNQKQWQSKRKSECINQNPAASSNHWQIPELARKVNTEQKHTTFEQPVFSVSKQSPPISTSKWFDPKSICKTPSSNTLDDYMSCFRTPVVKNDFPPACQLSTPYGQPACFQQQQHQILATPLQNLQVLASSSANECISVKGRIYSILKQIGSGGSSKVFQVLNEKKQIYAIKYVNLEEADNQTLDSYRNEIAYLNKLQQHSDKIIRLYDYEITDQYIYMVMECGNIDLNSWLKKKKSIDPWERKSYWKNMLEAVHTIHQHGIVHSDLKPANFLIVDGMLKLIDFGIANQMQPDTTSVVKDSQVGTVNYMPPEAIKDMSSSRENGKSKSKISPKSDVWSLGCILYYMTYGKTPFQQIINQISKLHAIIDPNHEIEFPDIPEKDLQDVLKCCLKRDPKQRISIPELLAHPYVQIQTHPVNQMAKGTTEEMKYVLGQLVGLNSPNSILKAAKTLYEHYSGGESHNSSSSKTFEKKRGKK

[2] = Clearance in rat at 2 mg/kg, iv; format: ADME, organism-based; details: in vivo
Cytochrome P450 3A4 = Cytochrome P450 3A4 (Homo sapiens, UniProt P08684); test: Inhibition of CYP3A4 in human liver microsomes using […] as substrate incubated for 5 mins in presence of NADPH by LC-MS/MS analysis; format: ADME
Sequence of Cytochrome P450 3A4 (P08684 whole entry): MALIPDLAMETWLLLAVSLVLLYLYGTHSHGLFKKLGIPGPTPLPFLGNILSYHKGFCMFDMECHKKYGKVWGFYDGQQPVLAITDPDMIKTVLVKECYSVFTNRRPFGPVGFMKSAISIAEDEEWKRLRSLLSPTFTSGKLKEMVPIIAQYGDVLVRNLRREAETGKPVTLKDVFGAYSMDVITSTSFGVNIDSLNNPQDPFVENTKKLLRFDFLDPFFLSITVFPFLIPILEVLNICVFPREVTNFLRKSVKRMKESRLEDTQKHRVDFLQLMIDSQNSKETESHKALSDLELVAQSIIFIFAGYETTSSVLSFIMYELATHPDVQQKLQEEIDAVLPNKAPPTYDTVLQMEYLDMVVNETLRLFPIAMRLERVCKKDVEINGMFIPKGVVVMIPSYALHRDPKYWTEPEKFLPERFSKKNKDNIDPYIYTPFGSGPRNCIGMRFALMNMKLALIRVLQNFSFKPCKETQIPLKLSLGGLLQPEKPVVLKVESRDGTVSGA

CAL-51 = test: Antiproliferative activity against human CAL-51 cells assessed as inhibition of cell proliferation measured after 3 days by Cell Titer-Glo luminescence based assay; format: functional; details: CAL-51, 72 h
[3] = Kinetic solubility of compound in PBS at pH 7.4 at 200 uM incubated for 24 hrs by UPLC/MS analysis; format: physicochemical; details: read-out: Kinetic_solubility

| SMILES | IC50 [1] | clearance [2] | IC50 (Cytochrome P450 3A4) | solubility kinetic at 24 h, 200 µM [3] | IC50 (CAL-51) |
| --- | --- | --- | --- | --- | --- |
| CCc1cccc(CC)c1NC(=O)c1cc(-c2nc(Nc3ccc(N4CCN(CC(=O)N(C)C)CC4)cc3OC)nc3[nH]ccc23)n(C)n1 | 3 nM | 1.2 L/h/kg |  | 3 µM (≈ 1.99 µg/mL) | 22 nM |
| CCc1cccc(CC)c1NC(=O)c1ccn(-c2nc(Nc3ccc(N4CCC(O)(C(=O)N5CCN(C)CC5)CC4)cc3OC)nc3[nH]ccc23)c1 | 2 nM |  | 1900 nM | 1 µM (≈ 0.706 µg/mL) | 10 nM |
| CCc1cccc(CC)c1NC(=O)c1ccn(-c2nc(Nc3ccc(N4CCN(CC(=O)N(C)C)CC4)cc3OC)nc3[nH]ccc23)c1 | 1 nM |  |  | 0.5 µM (≈ 0.325 µg/mL) | 10 nM |
| CCc1cccc(CC)c1NC(=O)c1ccn(-c2nc(Nc3ccc(N4CCC(O)(CN5CCN(C)CC5)CC4)cc3OC)nc3[nH]ccc23)c1 | 1 nM |  | 1200 nM | 37 µM (≈ 25.6 µg/mL) | 4 nM |
| CCc1cccc(CC)c1NC(=O)c1cc(-c2nc(Nc3ccc(N4CCC(O)(C(=O)N5CCN(C)CC5)CC4)cc3OC)nc3[nH]ccc23)n(C)n1 | 3 nM | 1.86 L/h/kg | > 5000 nM | 5 µM (≈ 3.6 µg/mL) | 20 nM |
| CCc1cccc(CC)c1NC(=O)c1cc(-c2nc(Nc3ccc(N4CCC(O)(CN5CCN(C)CC5)CC4)cc3OC)nc3[nH]ccc23)n(C)n1 | 2 nM | 3.36 L/h/kg | > 5000 nM | 162 µM (≈ 115 µg/mL) | 19 nM |
| CNC(=O)c1ccc(Nc2nc(OC3CCCC3)c3c(-c4ccc5nc(C)oc5c4)c[nH]c3n2)c(OC)c1 |  |  | 280 nM |  |  |
| COc1cc(N2CCN(C3COC3)CC2)ccc1Nc1nc(O[C@H]2CCOC(C)(C)C2)c2cc[nH]c2n1 |  |  | > 5000 nM |  |  |

Further lines, with some results ahead:

| IC50 [1] | clearance [2] | IC50 (Cytochrome P450 3A4) | solubility kinetic at 24 h, 200 µM [3] | SMILES | IC50 (CAL-51) |
| --- | --- | --- | --- | --- | --- |
| 7.5 nM | 1.2 L/h/kg | > 5000 nM | 2 µM (≈ 1.46 µg/mL) | CCc1cccc(CC)c1N1CCn2cc(-c3nc(Nc4ccc(N5CCC(O)(C(=O)N6CCN(C)CC6)CC5)cc4OC)nc4[nH]ccc34)cc2C1=O | 12 nM |
| 2.8 nM | 0.9 L/h/kg | > 5000 nM | 150 µM (≈ 108 µg/mL) | CCc1cccc(CC)c1N1CCn2cc(-c3nc(Nc4ccc(N5CCC(O)(CN6CCN(C)CC6)CC5)cc4OC)nc4[nH]ccc34)cc2C1=O | 8 nM |
| 5.3 nM | 1.62 L/h/kg | 3900 nM | 125 µM (≈ 89.7 µg/mL) | CCc1cccc(CC)c1N1CCn2cc(-c3nc(Nc4ccc(N5CCC(C(=O)N(C)CCN(C)C)CC5)cc4OC)nc4[nH]ccc34)cc2C1=O | 7 nM |
| 5.6 nM | 0.102 L/h/kg | > 5000 nM | 0.8 µM (≈ 0.573 µg/mL) | CCc1cccc(CC)c1N1CCn2cc(-c3nc(Nc4ccc(N5CCC(C(=O)N6CCN(C)CC6)CC5)cc4OC)nc4[nH]ccc34)cc2C1=O | 5 nM |
| 6 nM | 0.9 L/h/kg | > 5000 nM | 18 µM (≈ 12.2 µg/mL) | CCc1cccc(CC)c1NC(=O)c1cc(-c2nc(Nc3ccc(N4CCC(N5CCN(C)CC5)CC4)cc3OC)nc3[nH]ccc23)n(C)n1 | 17 nM |
| 4 nM | 3.12 L/h/kg | > 5000 nM | 6 µM (≈ 4.13 µg/mL) | CCc1cccc(CC)c1N1CCn2cc(-c3nc(Nc4ccc(N5CCC(N6CCN(C)CC6)CC5)cc4OC)nc4[nH]ccc34)cc2C1=O | 9 nM |
| 2 nM | 4.08 L/h/kg | 2000 nM | 53 µM (≈ 35.1 µg/mL) | CCc1cccc(CC)c1NC(=O)c1ccn(-c2nc(Nc3ccc(N4CCC(N5CCN(C)CC5)CC4)cc3OC)nc3[nH]ccc23)c1 | 6 nM |
| 4 nM | 1.14 L/h/kg | > 5000 nM | 2 µM (≈ 1.41 µg/mL) | CCc1cccc(CC)c1NC(=O)c1cc(-c2nc(Nc3ccc(N4CCC(C(=O)N5CCN(C)CC5)CC4)cc3OC)nc3[nH]ccc23)n(C)n1 | 17 nM |
| 9 nM | 1.38 L/h/kg |  | 1.4 µM (≈ 0.946 µg/mL) | CCc1cccc(CC)c1N1CCn2cc(-c3nc(Nc4ccc(N5CCN(CC(=O)N(C)C)CC5)cc4OC)nc4[nH]ccc34)cc2C1=O | 11 nM |
| 2 nM | 1.32 L/h/kg | 3100 nM |  | CCc1cccc(CC)c1NC(=O)c1ccn(-c2nc(Nc3ccc(N4CCC(C(=O)N5CCN(C)CC5)CC4)cc3OC)nc3[nH]ccc23)c1 | 10 nM |
